Consider 17 compounds from patent US20170275302A1, “INHIBITORS OF THE RENAL OUTER MEDULLARY POTASSIUM CHANNEL” (Merck Sharp & Dohme Corp., priority 2014, published 2017).

The target in this assay is T1, hROMK (hKir1.1) (Homo sapiens, UniProt P48048).
T1 construct: expressed in transfected cells
T1 sequence (P48048 1-391): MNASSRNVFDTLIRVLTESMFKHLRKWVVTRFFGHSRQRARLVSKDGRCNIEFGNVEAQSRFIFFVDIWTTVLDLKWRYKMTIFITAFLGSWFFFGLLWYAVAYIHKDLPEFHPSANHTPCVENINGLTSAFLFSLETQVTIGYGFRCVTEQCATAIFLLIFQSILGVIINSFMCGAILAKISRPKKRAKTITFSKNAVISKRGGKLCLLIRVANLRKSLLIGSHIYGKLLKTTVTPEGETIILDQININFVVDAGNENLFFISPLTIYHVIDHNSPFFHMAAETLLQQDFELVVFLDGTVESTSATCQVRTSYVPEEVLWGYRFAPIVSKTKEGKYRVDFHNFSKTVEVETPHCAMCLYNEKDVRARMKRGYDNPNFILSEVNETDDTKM
Description: Thallium Flux Assay (ROMK channel functional thallium flux assay, FLIPR-Tetra). It is filed as cell-based. To be noted: HEK293 cells stably expressing hROMK (hKir1.1); FluxOR thallium flux, 30 min compound incubation; concentration inhibiting 50% of ROMK thallium flux signal. The protocol:
The following Thallium Flux Assay was performed on each of the final product compounds in the Examples.
HEK293 cells stably expressing hROMK (hKir1.1) were grown at 37° C. in a 10% CO2 humidified incubator in complete growth media: Dulbecco's Modified Eagle Medium supplemented with non-essential amino acids, Penicillin/Streptomycin/Glutamine, G418 and FBS. At >80% confluency, the media was aspirated from the flask and rinsed with 10 mL calcium/magnesium-free phosphate buffered saline (PBS). 5 mL of 1× trypsin (prepared in Ca/Mg Free PBS) was added to T-225 flask and the flask was returned to 37° C./CO2 incubator for 2-3 minutes. To dislodge the cells, the side of the flask was gently banged with one's hand. The cells were completely titrated and then the cells were transferred to 25 mL complete media, centrifuged at 1,500 rpm for 6 min followed by resuspension in complete growth media, and the cell concentration was determined. For typical re-seeding, 4E6 cells/T-225 flask will attain >80% confluency in 4 days. Under ideal growth conditions and appropriate tissue culture practices, this cell line is stable for 40-45 passages.
Compound Buffer (per microplate): 20 mL Probenecid/Assay Buffer; 0.3 mM ouabain (10 mM ouabain in water can be stored in amber bottle/aluminum foil at room temperature); Test compound
Stimulant Buffer (prepared at 5× final concentration in 1× FluxOR™Chloride-Free Buffer): 7.5 mM thallium sulfate and 0.75 mM potassium sulfate (to give a final assay concentration of 3 mM Thallium/0.3 mM potassium). Store at 4° C. when not in use. If kept sterile, this solution is good for months.
The ROMK channel functional thallium flux assay was performed in 384 wells, using the FLIPR-Tetra instrument. HEK-hKir1.1 cells were seeded in Poly-D-Lysine microplates and kept in a 37° C.-10% CO2 incubator overnight. On the day of the experiment, the growth media was replaced with the FluxOR™ reagent loading buffer and incubated, protected from light, at ambient temperature (23-25° C.) for 90 min. The loading buffer was replaced with assay buffer±test compound followed by 30 min incubation at ambient temperature, where the thallium/potassium stimulant was added to the microplate.
• 1. Seed HEK-hKir1.1 cells (50 μl at 20,000 cells/well) in 384-well PDL coated Microplates • 2. Allow cells to adhere overnight in humidified 37° C./10% CO2 incubator • 3. Completely remove cell growth media from microplate and replace with 25 μl loading buffer • 4. Incubate Microplate at room temperature, protected form light, for 90 min • 5. Remove loading buffer and replace with 25 μl 1× Assay Buffer±test compound. • 6. Incubate microplate at room temperature, protected from light, for 30 min • 7. At FLIPR-Tetra 384: Add stimulant (thallium/potassium) solution to microplate and monitor fluorescence. Excitation=400 nm, Emission=460 & 580 nm. Collect data for ˜10 min.
The fluorescence intensity of wells containing 3 μM of a standard control ROMK inhibitor of the present invention was used to define the ROMK-sensitive component of thallium flux. Fluorescence in the presence of test compounds was normalized to control values to provide % fluorescence change. IC50 values represent the concentration of compound that inhibited 50% of the ROMK thallium flux signal.

SMILES strings stand for the structures.

One may read the IC50 as the concentration that gives 50% inhibition. Low values mean greater potency, high ones weaker potency. `Cc1nc(-n2cnnn2)ccc1[C@@H](O)CN1CCC2(CC1)CCN(c1ccc3c(c1C)COC3=O)C2` [Example 78] came in with an IC50 of 622 nM.
As for `Cc1c([C@@H](O)CN2CCC3(CC2)CCN(c2ccc4c(c2C)COC4=O)C3)ccc2c1COC2=O` [Example 79, (R)-5-(1-hydroxy-2-(2-(4-methyl-1-oxo-1,3-dihydroisobenzofuran-5-yl)-2,8-diazaspiro[4.5]decan-8-yl)ethyl)-4-methylisobenzofuran-1(3H)-one], the figure is 19 nM; as for `Cc1c([C@@H](O)CN2CCC3(CC2)CN(c2ccc4c(c2C)COC4=O)C(=O)O3)ccc2c1COC2=O` [Example 81, (R)-8-(2-hydroxy-2-(4-methyl-1-oxo-1,3-dihydroisobenzofuran-5-yl)ethyl)-3-(4-methyl-1-oxo-1,3-dihydroisobenzofuran-5-yl)-1-oxa-3,8-diazaspiro[4.5]decan-2-one], 91.4 nM.
Under `Cc1c([C@@H](O)CN2CCC3(CC2)CCN(c2snc4ccccc24)C3=O)ccc2c1COC2=O` [Example 82] stands 32.6 nM.
`Cc1c([C@@H](O)CN2CCC3(CC2)CCN(c2snc4cccnc24)C3=O)ccc2c1COC2=O` [Example 83] registered an IC50 of 33.9 nM.
As for `Cc1c([C@@H](O)CN2CCC3(CC2)CCN(c2snc4ncccc24)C3=O)ccc2c1COC2=O` [Example 84], the figure is 57.1 nM; as for `Cc1c([C@@H](O)CN2CCC3(CC2)CCN(c2snc4ccncc24)C3=O)ccc2c1COC2=O` [Example 85], 18.5 nM; as for `Cc1c([C@@H](O)CN2CCC3(CC2)CCN(c2ccc4cnnn4c2)C3=O)ccc2c1COC2=O` [Example 86], 172 nM.
As for `Cc1c([C@@H](O)CN2CCC3(CC2)CCN(c2ccn4cncc4c2)C3=O)ccc2c1COC2=O` [Example 87], the figure is 260 nM.
In the case of `Cc1c([C@@H](O)CN2CCC3(CC2)CCN(c2ccn4nncc4c2)C3=O)ccc2c1COC2=O` [Example 88, (R)-2-([1,2,3]triazolo[1,5-a]pyridin-5-yl)-8-(2-hydroxy-2-(4-methyl-1-oxo-1,3-dihydroisobenzofuran-5-yl)ethyl)-2,8-diazaspiro[4.5]decan-1-one], the IC50 came to 29.2 nM.
Regarding `Cc1c([C@@H](O)CN2CCC3(CC2)CC(=O)N(c2ccc4nonc4c2)C3)ccc2c1COC2=O` [Example 89, (R)-2-(benzo[c][1,2,5]oxadiazol-5-yl)-8-(2-hydroxy-2-(4-methyl-1-oxo-1,3-dihydroisobenzofuran-5-yl)ethyl)-2,8-diazaspiro[4.5]decan-3-one], the half-maximal inhibitory concentration (IC50) stood at 42.7 nM.
In turn, `Cc1c([C@@H](O)CN2CCC3(CC2)CCN(c2ccc4nonc4c2)C3)ccc2c1COC2=O` [Example 90] had a half-inhibitory concentration (IC50) of 98.3 nM.
As for `Cc1c([C@@H](O)CN2CCC3(CC2)CCN(c2nccn4ccnc24)C3)ccc2c1COC2=O` [Example 91], the figure is 699 nM.
Under `Cc1c([C@@H](O)CN2CCC3(CC2)CCN(c2cnc4nonc4c2)C3)ccc2c1COC2=O` [Example 92, (R)-5-(2-(2-([1,2,5]oxadiazolo[3,4-b]pyridin-6-yl)-2,8-diazaspiro[4.5]decan-8-yl)-1-hydroxyethyl)-4-methylisobenzofuran-1(3H)-one] stands 27.3 nM.
Under `Cc1c([C@@H](O)CN2CCC3(CC2)CC(=O)N(c2ccc4nonc4n2)C3)ccc2c1COC2=O` [Example 93] stands 274 nM; under `Cc1c([C@@H](O)CN2CCC3(CC2)CC(=O)N(c2cnc4nonc4c2)C3)ccc2c1COC2=O` [Example 94], 109 nM; under `Cc1c([C@@H](O)CN2CCC3(CC2)CCN(c2ccc4nonc4n2)C3)ccc2c1COC2=O` [Example 95, (R)-5-(2-(2-([1,2,5]oxadiazolo[3,4-b]pyridin-5-yl)-2,8-diazaspiro[4.5]decan-8-yl)-1-hydroxyethyl)-4-methylisobenzofuran-1(3H)-one], 19.2 nM.
